Reference: patent US20110092469A1, “Quinone derivative 2,3-dimethoxy-5-methyl-6-(10-hydroxydecyl)-1,4-benzoquinone for the treatment of respiratory illness in muscular dystrophy” (SANTHERA PHARMACEUTICALS (SCHWEIZ) AG, priority 2008, published 2011)

System: Duchenne Muscular Dystrophy (DMD) patients
Experiment: Double-blind, placebo-controlled, randomised clinical trial: pulmonary function testing in DMD patients
Format: in vivo, human
Description: Efficacy of idebenone on respiratory parameters in Duchenne Muscular Dystrophy (DMD) patients was assessed in a double-blind, placebo-controlled, randomised parallel group, clinical trial conducted in one singe clinical center. DMD patients at age 8 to 16 years were treated with idebenone or placebo over a period of 52 weeks. After written informed consent was obtained from the patient and the patient's parent/legal guardian, patients who met the protocol eligibility criteria were enrolled at the study centre and randomised to daily treatment of idebenone (150 mg, 3× daily; total daily dose of 450 mg) or placebo (3× daily). Efficacy was assessed at baseline and at weeks 26 and 52.
A total of 21 patients were enrolled, 13 patients were randomised to treatment with idebenone and 8 randomised to treatment with placebo.
Idebenone was formulated as a round biconvex shaped, film-coated orange tablet, with a 10 mm diameter, containing 150 mg of idebenone and Lactose Monohydrate, Microcrystalline Cellulose, Croscarmellose Sodium, Povidone (Plasdone® K25), Magnesium Stearate and Silicon Dioxide as excipients. The tablet is manufactured by a wet granulation process performed with a high-shear granulator, followed by compression on a rotary tabletting machine and film-coating of the cores in a perforated pan coater. The composition of the placebo is based on the composition of the 150 mg film-coated tablet. The drug substance and the excipients have been replaced by a mixture of lactose monohydrate and microcrystalline cellulose. The composition of the coating remained constant. Placebo tablets are manufactured by direct compression, followed by film-coating.
Both idebenone (150 mg) and matching placebo were administered as an oral tablet. Patients were to take 1 tablet, 3 times a day with meals, for 12 months (52 weeks).
Pulmonary function testing was performed by one clinical evaluator (physical therapist) with longstanding expertise in the assessment of children with neuromuscular diseases, using state of the art equipment and methods. Testing was done with the patient sitting, with a standardized order of testing. Lung volumes (FVC, FEV1) were measured using a handheld Koko spirometer (PDS Instrumentation, Louisville, USA).
Maximum inspiratory (MIP) and expiratory (MEP) pressures were measured using a Magnehelic® manometer (Dwyer Instrument, Michigan City Ind., USA) connected to a mouthpiece. Peak expiratory flow (PEF) measurements were performed using a portable peak flow meter (Mini-Wright peak flow meter, Clement Clarke International). For all parameters the highest values from three consecutive recordings were used in compliance with criteria published by the American Thoracic Society (ATS) (American Thoracic Society. Am J Respir Crit Care Med 1994; 152:1107-1136).
Pulmonary function testing included the following parameters: • Forced vital capacity (FVC) [L] • Forced vital capacity % predicted • Forced expiratory volume in 1 second (FEV1) [L] • FEV1 (% predicted) • Peak expiratory flow (PEF) [L/min] • Peak expiratory flow (% predicted) • Maximal Inspiratory Pressure (MIP) [cmH2O] • Maximal Inspiratory Pressure (% predicted)
For peak expiratory flow conversion from measured values (in Liter) to ‘% predicted’ was performed by the following equation: […]
“peak expiratory flow−422.8+5.288×height”[height in cm]
For maximal inspiratory pressure (MIP) conversion from measured values (in cm H2O) to ‘% predicted’ was performed by the following equation: […]
“MIP−27.020−(4.132×age)−(0.003×height×weight)”[age: years; height: cm body height; weight: kg]
Efficacy of idebenone was determined for the parameters listed above as changes between baseline and end of treatment (at week 52) and comparisons were made between idebenone treated and placebo treated subjects.

[1] = DMD patients, idebenone 450 mg/day oral, N = 13, week 52, mean ± SD

SMILES: COC1=C(OC)C(=O)C(CCCCCCCCCCO)=C(C)C1=O [Idebenone, 2,3-dimethoxy-5-methyl-6-(10-hydroxydecyl)-1,4-benzoquinone]
- FVC (forced vital capacity), Week 52 (DMD patients 8-16 years, idebenone 150 mg 3x daily oral, N = 13, week 52 (end of treatment), mean ± SD): 2.33 ± 0.67 L
- MIP expressed as percent of the predicted value, increase over 52 weeks (DMD patients on idebenone, 52 week treatment period): 4.8±13.0%
- Peak expiratory flow at week 52 compared to baseline (in words) (DMD patients on idebenone, difference in change vs placebo statistically significant): higher at week 52 compared to baseline
- Maximum inspiratory pressure (MIP) over the 52 week treatment period (in words) (DMD patients on idebenone, expressed as more negative number, change clearly different from placebo): increased
- MIP, Change Week 52-BL (DMD patients, idebenone 450 mg/day oral, N = 13, change baseline to week 52, mean ± SD, more negative = larger inspiratory force, p 0.173 vs placebo (one-sided)): −7.33 ± 13.0 cmH2O
- Peak expiratory flow, Change Week 52-BL (DMD patients, idebenone 450 mg/day oral, N = 13, change baseline to week 52, mean ± SD, p 0.039 vs placebo (one-sided)): 30.8 ± 54.4 L/min
- Peak expiratory flow % predicted, Change Week 52-BL (DMD patients, idebenone 450 mg/day oral, N = 13, change baseline to week 52, mean ± SD, p 0.042 vs placebo (one-sided)): 2.8 ± 13.8 % predicted
- MIP % predicted, Change Week 52-BL (DMD patients, idebenone 450 mg/day oral, N = 13, change baseline to week 52, mean ± SD, p 0.142 vs placebo (one-sided)): 4.8 ± 13.0 % predicted
- FVC, Change Week 52-BL (DMD patients, idebenone 450 mg/day oral, N = 13, change baseline to week 52, mean ± SD, p 0.471 vs placebo (one-sided)): 0.14 ± 0.31 L
- FEV1, Change Week 52-BL (DMD patients, idebenone 450 mg/day oral, N = 13, change baseline to week 52, mean ± SD, p 0.484 vs placebo (one-sided)): 0.11 ± 0.37 L
- FEV1 % predicted, Change Week 52-BL (DMD patients, idebenone 450 mg/day oral, N = 13, change baseline to week 52, mean ± SD, p 0.651 vs placebo (one-sided)): −2.0 ± 9.2 % predicted
- FVC % predicted, Change Week 52-BL (DMD patients, idebenone 450 mg/day oral, N = 13, change baseline to week 52, mean ± SD, p 0.793 vs placebo (one-sided)): −1.2 ± 6.4 % predicted
- FEV1 % predicted, Week 52 [1]: 74.5 ± 23.88 % predicted
- FEV1 (forced expiratory volume 1 second), Week 52 [1]: 2.08 ± 0.71 L
- FVC % predicted, Week 52 [1]: 75.3 ± 24.79 % predicted
- MIP % predicted, Week 52 [1]: 44.1 ± 13.38 % predicted
- MIP (maximal inspiratory pressure), Week 52 [1]: −47.3 ± 14.09 cmH2O
- Peak expiratory flow % predicted, Week 52 [1]: 76.9 ± 20.13 % predicted
- Peak expiratory flow, Week 52 [1]: 292.3 ± 90.6 L/min
- Changes in FVC, FVC % predicted, FEV1 and FEV1 % predicted versus placebo (in words) (DMD patients, idebenone treatment 52 weeks): not different from placebo treatment
